system: Rat mast cells (RBL-2H3 cells); assay: Calcium influx assay (Fluo-4NW, thapsigargin store depletion, Ca2+ re-addition); format: cell-based; conditions: 1 μM compound, control = DMSO, read-out: Fluo-4NW fluorescence (Ca2+ influx), % of control
Method: Rat mast cells (RBL-2H3 cells) (ATCC) were seeded in 96-well plate at 4×10^4 cells per well in DMEM-supplemented with 2% FBS and allowed to adhere overnight. Culture medium was then replaced with 50 μl of Ca^2+-free Tyrode buffer to load Ca^2+-probe Fluo-4NW (Molecular Probe, Thermo Fisher, MA, USA) per manufacturer instruction. A testing compound at indicated concentrations was supplied during the probe loading from the beginning. Cells were incubated in the presence or absence of a testing compound for 60 minutes in the Ca^2+-free medium at 37° C. During the last 5 minutes of incubation, cells were treated with 1 μM thapsigargin (Tg, Sigma Aldrich) to deplete [Ca^2+]ER, 20 mM CaCl2 in normal saline solution was supplemented back to the [Ca^2+]ER-depleted cells to have 2 mM as final concentration. Culture medium was removed 1 minute after Ca^2+ reloading, and changes in Fluo-4NW fluorescence (RFU) were recorded with the multi-mode plate reader (FilterMax F5, Molecular Devices/Thermo Fisher Scientific, MA, USA) at an excitation wavelength of 485 nm and an emission wavelength of 535 nm. The inhibitory activity of the tested compound was presented as % of control (DMSO).

**Q.** With `O=C(Nc1c(F)cccc1F)c1cn(CC2CC2)c2ccccc12` [Example 1, 1-(cyclopropylmethyl)-N-(2,6-difluorophenyl)-1H-indole-3-carboxamide] as the compound, how does the activity at 1 µM read?
**A.** 75%

**Q.** `O=C(Nc1c(F)cncc1F)c1cn(CC2CC2)c2ccccc12` [Example 3, 1-(cyclopropylmethyl)-N-(3,5-difluoropyridin-4-yl)-1H-indole-3-carboxamide] was tested. Which activity at 1 µM did it give?
**A.** 66%

**Q.** `Cc1cnccc1NC(=O)c1cn(CC2CC2)c2ccccc12` [Example 4, 1-(cyclopropylmethyl)-N-(3-methylpyridin-4-yl)-1H-indole-3-carboxamide] was tested. Which activity at 1 µM did it give?
**A.** 61%

same assay, conditions: 10 μM compound, control = DMSO, read-out: Fluo-4NW fluorescence (Ca2+ influx), % of control

**Q.** Which activity at 10 µM does the source give for `O=C(Nc1c(F)cccc1F)c1cn(CC2CC2)c2ccccc12` [Example 1, 1-(cyclopropylmethyl)-N-(2,6-difluorophenyl)-1H-indole-3-carboxamide] here?
**A.** 42%

**Q.** Which activity at 10 µM does the source give for `O=C(Nc1c(F)cncc1F)c1cn(CC2CC2)c2ccccc12` [Example 3, 1-(cyclopropylmethyl)-N-(3,5-difluoropyridin-4-yl)-1H-indole-3-carboxamide] here?
**A.** 37%

**Q.** Which activity at 10 µM does the source give for `Cc1cnccc1NC(=O)c1cn(CC2CC2)c2ccccc12` [Example 4, 1-(cyclopropylmethyl)-N-(3-methylpyridin-4-yl)-1H-indole-3-carboxamide] here?
**A.** 44%

system: NFAT; assay: NFAT activation assay (luciferase reporter, PMA and ionomycin); format: cell-based; conditions: Homo sapiens; 10 μM compound; Jurkat cells; 15 nM PMA and 0.5 μM ionomycin; 18 hours; read-out: Activity 10 μM (% inhibition of NFAT luciferase luminescence)
Method: Jurkat cells (BPS Bioscience catalog No. 60621) were seeded at 40,000 cells per well into white clear-bottom 96-well microplate in 80 μl of growth medium without Geneticin. 10 μl of testing compounds (final 10 μM) were added to each well and preincubated with cells for half an hour. Then 10 μl of PMA and ionomycin mixture were added to each well to make the final concentration of 15 nM PMA and 0.5 μM ionomycin. Cells were incubated at 37° C. and 5% CO2 incubator for 18 hours. After treatment, cells were lysed and the luciferase assay was performed using ONE-Step luciferase assay system by adding 100 μl of One-Step Luciferase reagent (BPS Bioscience catalog No. 60690) per well followed by rocking at room temperature for about 30 minutes. Luminescence was measured using a luminometer (BioTek Synergym™ 2 microplate reader). The percent luminescence in the presence of each compound was calculated according to the following equation: % Luminescence=(L−Lb)/(Lt−Lb), where L=the luminescence intensity in the presence of the compound, Lb=the luminescence intensity in the absence of cells, and Lt=the luminescence intensity in the absence of the compound. The percent inhibition was calculated by: % inhibition=100−(% Luminescence).

**Q.** With `O=C(Nc1c(F)cccc1F)c1cn(CC2CC2)c2ccccc12` [Example 1, 1-(cyclopropylmethyl)-N-(2,6-difluorophenyl)-1H-indole-3-carboxamide] as the compound, how does the inhibition at 10 µM read?
**A.** 51 to 75%

**Q.** How did the inhibition at 10 µM turn out when `O=C(Nc1c(F)cncc1F)c1cn(CC2CC2)c2ccccc12` [Example 3, 1-(cyclopropylmethyl)-N-(3,5-difluoropyridin-4-yl)-1H-indole-3-carboxamide] was run?
**A.** 51 to 75%

**Q.** `Cc1cnccc1NC(=O)c1cn(CC2CC2)c2ccccc12` [Example 4, 1-(cyclopropylmethyl)-N-(3-methylpyridin-4-yl)-1H-indole-3-carboxamide] was tested. Which inhibition at 10 µM did it give?
**A.** 51 to 75%

**Q.** Which inhibition at 10 µM does the source give for `O=C(Nc1ccncc1F)c1cn(CC2CC2)c2ncccc12` [Example 5, 1-(cycloproylmethyl)-N-(3-fluoropyridin-4-yl)-1H-pyrrolo[2,3-b]pyridine-3-carboxamide] here?
**A.** 26 to 50%

**Q.** `Cc1cnccc1NC(=O)c1nn(CC2CC2)c2ccccc12` [Example 6, 1-(cyclopropylmethyl)-N-(3-methylpyridin-4-yl)-1H-indazole-3-carboxamide] was tested. Which inhibition at 10 µM did it give?
**A.** > 75%

**Q.** With `O=C(Nc1ccncc1F)c1nn(CC2CCC2)c2ccccc12` [Example 10, 1-(cyclobutylmethyl)-N-(3-fluoropyridin-4-yl)-1H-indazole-3-carboxamide] as the compound, how does the inhibition at 10 µM read?
**A.** > 75%

**Q.** For `Cc1cnccc1NC(=O)c1nn(CC2CCC2)c2ccccc12` [Example 11, 1-(cyclobutylmethyl)-N-(3-methylpyridin-4-yl)-1H-indazole-3-carboxamide], which inhibition at 10 µM is on record?
**A.** > 75%

**Q.** How did the inhibition at 10 µM turn out when `O=C(Nc1ccncc1F)c1cn(CC2COC2)c2ccccc12` [Example 12, N-(3-fluoropyridin-4-yl)-1-(oxetan-3-ylmethyl)-1H-indole-3-carboxamide] was run?
**A.** < 25%

**Q.** How did the inhibition at 10 µM turn out when `CN(C(=O)c1cn(CC2CC2)c2ccccc12)c1ccncc1F` [Example 14, 1-(cyclopropylmethyl)-N-(3-fluoropyridin-4-yl)-N-methyl-1H-indole-3-carboxamide] was run?
**A.** < 25%

**Q.** With `Fc1cnccc1NCc1cn(CC2CC2)c2ccccc12` [Example 15, N-((1-(cyclopropylmethyl)-1H-indol-3-yl)methyl)-3-fluoropyridin-4-amine] as the compound, how does the inhibition at 10 µM read?
**A.** 26 to 50%

**Q.** `O=C(Nc1ccncc1F)c1cn(CC2CC2)c2cnccc12` [Example 16, 1-(cycloproylmethyl)-N-(3-fluoropyridin-4-yl)-1H-pyrrolo[2,3-c]pyridine-3-carboxamide] was tested. Which inhibition at 10 µM did it give?
**A.** < 25%

**Q.** `O=C(Nc1ccncc1F)c1cn(CC2CC2)c2ccncc12` [Example 17, 1-(cyclopropylmethyl)-N-(3-fluoropyridin-4-yl)-1H-pyrrolo[3,2-c]pyridine-3-carboxamide] was tested. Which inhibition at 10 µM did it give?
**A.** < 25%

**Q.** With `O=C(Nc1ccncc1F)c1cn(CC2CC2)c2cccnc12` [Example 18, 1-(cycloproylmethyl)-N-(3-fluoropyridin-4-yl)-1H-pyrrolo[3,2-b]pyridine-3-carboxamide] as the compound, how does the inhibition at 10 µM read?
**A.** 26 to 50%

**Q.** Which inhibition at 10 µM does the source give for `Cc1cnccc1NC(=O)c1ccn(CC2CC2)n1` [Example 19, 1-(cyclopropylmethyl)-N-(3-methylpyridin-4-yl)-1H-pyrazole-3-carboxamide] here?
**A.** 51 to 75%

**Q.** How did the inhibition at 10 µM turn out when `O=C(Nc1ccncc1F)c1ccn(CC2CC2)n1` [Example 20, 1-(cyclopropylmethyl)-N-(3-fluoropyridin-4-yl)-1H-pyrazole-3-carboxamide] was run?
**A.** 51 to 75%

**Q.** How did the inhibition at 10 µM turn out when `O=C(Nc1c(F)cccc1F)c1ccn(CC2CC2)n1` [Example 21, 1-(cyclopropylmethyl)-N-(2,6-difluorophenyl)-1H-pyrazole-3-carboxamide] was run?
**A.** < 25%

**Q.** `O=C(Nc1c(F)cncc1F)c1ccn(CC2CC2)n1` [Example 22, 1-(cyclopropylmethyl)-N-(3,5-difluoropyridin-4-yl)-1H-pyrazole-3-carboxamide] was tested. Which inhibition at 10 µM did it give?
**A.** < 25%

**Q.** Which inhibition at 10 µM does the source give for `O=C(Nc1ccncc1F)c1nn(CC2CC2)c2ccccc12` [Example 23, 1-(cyclopropylmethyl)-N-(3-fluoropyridin-4-yl)-1H-indazole-3-carboxamide] here?
**A.** > 75%

**Q.** With `O=C(Nc1ccncc1F)c1nn(CC2CC2)c2c1CCCC2` [Example 25, 1-(cyclopropylmethyl)-N-(3-fluoropyridin-4-yl)-4,5,6,7-tetrahydro-1H-indazole-3-carboxamide] as the compound, how does the inhibition at 10 µM read?
**A.** > 75%

**Q.** For `O=C(Nc1c(F)cccc1F)c1nn(CC2CC2)c2c1CCCC2` [Example 26, 1-(cyclopropylmethyl)-N-(2,6-difluorophenyl)-4,5,6,7-tetrahydro-1H-indazole-3-carboxamide], which inhibition at 10 µM is on record?
**A.** 51 to 75%

**Q.** For `O=C(Nc1ccn(CC2CC2)n1)c1c(F)cncc1F` [Example 27, N-(1-(cyclopropylmethyl)-1H-pyrazol-3-yl)-3,5-difluoroisonicotinamide], which inhibition at 10 µM is on record?
**A.** 26 to 50%

**Q.** Which inhibition at 10 µM does the source give for `O=C(Nc1ccn(CC2CC2)n1)c1ccncc1F` [Example 28, N-(1-(cyclopropylmethyl)-1H-pyrazol-3-yl)-3-fluoroisonicotinamide] here?
**A.** < 25%

**Q.** With `Cc1cnccc1C(=O)Nc1ccn(CC2CC2)n1` [Example 30, N-[1-(cyclopropylmethyl)-1H-pyrazol-3-yl]-3-methylpyridine-4-carboxamide] as the compound, how does the inhibition at 10 µM read?
**A.** < 25%

**Q.** With `O=C(Nc1ccncc1F)c1nn(CC2CC2)c2ncccc12` [Example 31, 1-(cyclopropylmethyl)-N-(3-fluoropyridin-4-yl)-1H-pyrazolo[3,4-b]pyridine-3-carboxamide] as the compound, how does the inhibition at 10 µM read?
**A.** 51 to 75%

**Q.** How did the inhibition at 10 µM turn out when `O=C(Nc1ccncc1F)c1nn(CC2CC2)c2c1CCC2` [Example 32, 1-(cycloproylmethyl)-N-(3-fluoropyridin-4-yl)-1,4,5,6-tetrahydrocyclopenta[c]pyrazole-3-carboxamide] was run?
**A.** > 75%

**Q.** For `O=C(Nc1ccncc1F)c1nn(CC2CCC2)c2c1CCCC2` [Example 33, 1-(cyclobutylmethyl)-N-(3-fluoropyridin-4-yl)-4,5,6,7-tetrahydro-1H-indazole-3-carboxamide], which inhibition at 10 µM is on record?
**A.** > 75%

**Q.** How did the inhibition at 10 µM turn out when `Cc1ccc2c(c1)c(C(=O)Nc1ccncc1F)nn2CC1CC1` [Example 34, 1-(cyclopropylmethyl)-N-(3-fluoropyridin-4-yl)-5-methyl-1H-indazole-3-carboxamide] was run?
**A.** > 75%

**Q.** How did the inhibition at 10 µM turn out when `O=C(Nc1ccncc1F)c1nn(CC2CC2)c2cc(Cl)ccc12` [Example 35, 6-chloro-1-(cyclopropylmethyl)-N-(3-fluoropyridin-4-yl)-1H-indazole-3-carboxamide] was run?
**A.** 51 to 75%

**Q.** With `O=C(Nc1ccncc1F)c1nn(CC2CC2)c2ccc(Br)cc12` [Example 36, 1-(cyclopropylmethyl)-5-bromo-N-(3-fluoropyridin-4-yl)-1H-indazole-3-carboxamide] as the compound, how does the inhibition at 10 µM read?
**A.** 51 to 75%

**Q.** `O=C(Nc1ccncc1F)c1nn(CC2CC2)c2ccc(F)cc12` [Example 37, 1-(cyclopropylmethyl)-5-fluoro-N-(3-fluoropyridin-4-yl)-1H-indazole-3-carboxamide] was tested. Which inhibition at 10 µM did it give?
**A.** > 75%

**Q.** For `O=C(Nc1ccncc1F)c1nn(CC2CC2)c2cc(F)ccc12` [Example 38, 1-(cyclopropylmethyl)-6-fluoro-N-(3-fluoropyridin-4-yl)-1H-indazole-3-carboxamide], which inhibition at 10 µM is on record?
**A.** > 75%

**Q.** `O=C(Nc1ccncc1F)c1nn(CC2CC2)c2c(F)cccc12` [Example 39, 1-(cyclopropylmethyl)-7-fluoro-N-(3-fluoropyridin-4-yl)-1H-indazole-3-carboxamide] was tested. Which inhibition at 10 µM did it give?
**A.** 51 to 75%

**Q.** How did the inhibition at 10 µM turn out when `Cc1cnccc1NC(=O)c1nn(CC2CCC2)c2c1CCCC2` [Example 40, 1-(cyclobutylmethyl)-N-(3-methylpyridin-4-yl)-4,5,6,7-tetrahydro-1H-indazole-3-carboxamide] was run?
**A.** > 75%

**Q.** `Cc1cnccc1NC(=O)c1nn(CC2CC2)c2c1CCC2` [Example 41, 1-(cycloproylmethyl)-N-(3-methylpyridin-4-yl)-1,4,5,6-tetrahydrocyclopenta[c]pyrazole-3-carboxamide] was tested. Which inhibition at 10 µM did it give?
**A.** 51 to 75%

**Q.** `Cc1cnccc1NC(=O)c1nn(CC2CC2)c2c1CCCC2` [Example 42, 1-(cyclopropylmethyl)-N-(3-methylpyridin-4-yl)-4,5,6,7-tetrahydro-1H-indazole-3-carboxamide] was tested. Which inhibition at 10 µM did it give?
**A.** > 75%

**Q.** How did the inhibition at 10 µM turn out when `Cc1c(C(=O)Nc2ccncc2F)c2ccccc2n1CC1CC1` [Example 43, 1-(cyclopropylmethyl)-N-(3-fluoropyridin-4-yl)-2-methyl-1H-indole-3-carboxamide] was run?
**A.** > 75%

— patent US12459938B2, “ORAI channel inhibitors” (Beth Israel Deaconess Medical Center, Inc., priority 2019, dated 2025)
